Results reported in patent publication US20100104565A1, “COMBINATIONS COMPRISING DMXAA FOR THE TREATMENT OF CANCER” (ANTISOMA RESEARCH LIMITED, priority 2005, published 2010).
Like-named read-outs stand apart in the source and are kept apart here.

How the values were obtained:
[1] = diclofenac 100 mg/kg i.p., cited from earlier work
[2] = system: glucoronidation and 6-methylhydroxylation of DMXAA in human liver microsomes; conditions: diclofenac 100 μM; cited from earlier work
[3] = system: glucoronidation and 6-methylhydroxylation of DMXAA in mouse liver microsomes; conditions: diclofenac 100 μM; cited from earlier work
[4] = with thalidomide, cited from earlier work
human tumours = conditions: phase I monotherapy, cited from earlier work
[5] = system: A549 (lung carcinoma) xenografts; test: A549 human lung carcinoma xenograft study in nude athymic mice; type: in vivo
From the text: Xenografts for human lung cancer are set-up in groups of nude, athymic mice. The cell line selected was A549 (ATCC number CCL-185), a lung carcinoma.

Structure (SMILES): O=C(O)Cc1ccccc1Nc1c(Cl)cccc1Cl [diclofenac]
- increase in the plasma DMXAA AUC ([1]; female mice): 31%
- increase in DMXAA T1/2 ([1]; male and female mice, P<0.05): threefold increase
- increase in the plasma DMXAA AUC ([1]; male mice): 24%
- inhibition of 6-methylhydroxylation of DMXAA [2]: > 54%
- inhibition of glucoronidation of DMXAA [2]: > 70%
- inhibition of 6-methylhydroxylation of DMXAA [3]: > 54%
- inhibition of glucoronidation of DMXAA [3]: > 70%

Structure (SMILES): O=C1CCC(N2C(=O)c3ccccc3C2=O)C(=O)N1 (stereo not drawn) [Thalidomide, thalidomide]
- increase of the AUC of DMXAA ([4]; liver): 1.8 times
- increase of the AUC of DMXAA ([4]; plasma): 1.8 times
- increase of the AUC of DMXAA ([4]; spleen): 1.8 times
- increase of the AUC of DMXAA ([4]; tumour): three times

Structure (SMILES): Cc1ccc2c(=O)c3cccc(CC(=O)O)c3oc2c1C [DMXAA, 5,6-dimethylxanthenone-4-acetic acid]
- tumour blood flow (dynamic MRI) (human tumours; well-tolerated doses): significant reduction in tumour blood flow
- tumour responses (human tumours): very few tumour responses
- Drug deaths ([5]; A549 xenografts, DMXAA 21 mg/kg, Erbitux 33 mg/kg by injection, deaths/mice per group): 2/10
- Response CR ([5]; Complete Response (cure; undetectable tumour over two weeks), Table 2): 0
- Response PD ([5]; Progressive Disease (≧50% increase in tumour size), Table 2): 2/10
- Response SD ([5]; Stable Disease (does not satisfy criteria for PR or PD), Table 2): 16
- Tumour Growth Delay ([5]; difference in days for treated versus control tumours to quadruple in volume): 16 days
- TTP ([5]; median time to disease progression): 16 days
- Regression Duration ([5]; number of days that tumour volume is less than the original treatment volume): 0 days
- Median VQT (Range; days) ([5]; tumour volume quadrupling time, A549 xenografts): 48 days
